What was measured:
Alternaria brassicae = experiment: In vivo test on Alternaria brassicae (leaf spot of crucifers) on radish plants; settings: 330 ppm; comparison compounds of WO 01/11965
Method: (§1) The active ingredients tested are prepared by homogenization in a mixture of DMSO (dimethylsulfoxid)/acetone/tween/water. This suspension is then diluted with water to obtain the desired active material concentration.
Radish plants (Pernot variety) in starter cups, sown on a 50/50 peat soil-pozzolana substrate and grown at 18-20° C., are treated at the cotyledon stage by spraying with the aqueous suspension described above.
Plants, used as controls, are treated with an aqueous solution not containing the active material.
After 24 hours, the plants are contaminated by spraying them with an aqueous suspension of Alternaria brassicae spores (40,000 spores per cm^3). The spores are collected from a 12-13-day-old culture.
The contaminated radish plants are incubated for 6-7 days at about 18° C., under a humid atmosphere.
Grading is carried out 6 to 7 days after the contamination, in comparison with the control plants.

Botrytis cinerea = experiment: In vivo test on Botrytis cinerea (gherkin grey mould) on gherkin plants; settings: 330 ppm; comparison compounds of WO 01/11965
Method: as §1
Gherkin plants (Petit Vert de Paris variety) in starter cups, sown on a 50/50 peat soil-pozzolana substrate and grown at 18-20° C., are treated at the cotyledon Z11 stage by spraying with the aqueous suspension described above. Plants, used as controls, are treated with an aqueous solution not containing the active material.
After 24 hours, the plants are contaminated by depositing drops of an aqueous suspension of Botrytis cinerea spores (150,000 spores per ml) on upper surface of the leaves. The spores are collected from a 15-day-old culture and are suspended in a nutrient solution composed of: • 20 g/L of gelatin • 50 g/L of cane sugar • 2 g/L of NH4NO3 • 1 g/L of KH2PO4
The contaminated gherkin plants are settled for 5/7 days in a climatic room at 15-11° C. (day/night) and at 80% relative humidity.
Grading is carried out 5/7 days after the contamination, in comparison with the control plants.

Peronospora parasitica = experiment: Efficacy against Peronospora parasitica; format: in vivo; settings: 330 ppm; comparison compound of WO 01/11965

| SMILES | effectiveness on Alternaria brassicae (Alternaria brassicae) | effectiveness on Botrytis cinerea (Botrytis cinerea) | efficacy against Peronospora parasitica (Peronospora parasitica) |
| --- | --- | --- | --- |
| O=C(Cc1cccs1)NCc1ncc(C(F)(F)F)cc1Cl [compound 101, N-{[3-chloro-5-(trifluoromethyl)-2-pyridinyl]methyl}-5-thienylacetamide] | poor efficacy | no efficacy | no efficacy |
| CCNC(=O)C(Cc1ncc(C(F)(F)F)cc1Cl)NC(=O)c1ccccc1 (stereo not drawn) [compound 304, N-{1-ethylcarbamoyl-2-[3-chloro-5-(trifluoromethyl)-2-pyridinyl]-ethyl}-benzamide] |  | zero effectiveness |  |
| CCNC(=O)C(Cc1ncc(C(F)(F)F)cc1Cl)NC(=O)c1ccc(Cl)cc1 (stereo not drawn) [compound 306, N-{1-ethylcarbamoyl-2-[3-chloro-5-(trifluoromethyl)-2-pyridinyl]ethyl}-4-chlorobenzamide] |  | zero effectiveness |  |
| CCNC(=O)C(Cc1ncc(C(F)(F)F)cc1Cl)NC(=O)c1cccc([N+](=O)[O-])c1 (stereo not drawn) [compound 307, N-{1-ethylcarbamoyl-2-[3-chloro-5-(trifluoromethyl)-2-pyridinyl]ethyl}-3-nitrobenzamide] | poor effectiveness | zero effectiveness |  |
| CCNC(=O)C(Cc1ncc(C(F)(F)F)cc1Cl)NC(=O)c1ccccc1Br (stereo not drawn) [compound 310, N-{1-ethylcarbamoyl-2-[3-chloro-5-(trifluoromethyl)-2-pyridinyl]ethyl}-2-bromobenzamide] |  | zero effectiveness |  |
| CNC(=O)C(Cc1ncc(C(F)(F)F)cc1Cl)NC(=O)c1ccccc1 (stereo not drawn) [compound 314, N-{1-methylcarbamoyl-2-[3-chloro-5-(trifluoromethyl)-2-pyridinyl]ethyl}-benzamide] |  | zero effectiveness |  |
| CNC(=O)C(Cc1ncc(C(F)(F)F)cc1Cl)NC(=O)c1ccc(OC)cc1 (stereo not drawn) [compound 315, N-{1-methylcarbamoyl-2-[3-chloro-5-(trifluoromethyl)-2-pyridinyl]ethyl}-4-methoxybenzamide] |  | zero effectiveness |  |
| CNC(=O)C(Cc1ncc(C(F)(F)F)cc1Cl)NC(=O)c1ccc(-c2ccccc2)cc1 (stereo not drawn) [compound 316, N-{1-methylcarbamoyl-2-[3-chloro-5-(trifluoromethyl)-2-pyridinyl]-ethyl}-4-phenylbenzamide] | poor effectiveness | zero effectiveness |  |
